Laboratory results reported in paper PMC8951032, “Study of Biological Activities and ADMET-Related Properties of Novel Chlorinated N-arylcinnamamides” (International Journal of Molecular Sciences, 2022).
Values after ≈ are worked out from the molar mass of the structure shown. Where two headings read alike, the source gives them in different places.

What was measured:
[1] = Lipophilicity determination by RP-HPLC (log k, log D); format: physicochemical; details: for log k: MeOH 72%/H2O 28%; for log D6.5: MeOH 72%/acetate buffered saline pH 6.5; for log D7.4: MeOH 72%/acetate buffered saline pH 7.4
Method: In addition to the mentioned ADME profile, it is responsible for interactions with biological targets. Lipophilicity is recognized as one of the most important parameters influencing ADME and bioactivity and is also part, e.g., of Lipinski’s Rule of Five (Ro5). This thermodynamic parameter describing the molecule’s affinity for an aqueous or relatively lipophilic environment can be characterized by the logarithm of the partition coefficient (log P). In this study, lipophilicity was measured by reversed-phase high-performance liquid chromatography (RP-HPLC) under isocratic conditions with methanol as the organic modifier in the aqueous mobile phase and the logarithm of the capacity factor k was calculated, which is used as the lipophilicity index converted to the log P scale. In addition to the log k values, the logarithm of the distribution coefficient DpH at pH 6.5 and 7.4 was determined to clarify the behavior of the compounds under physiological conditions and possible ionization. Instead of water, a buffer of suitable pH was used as part of the mobile phase. In addition to the above-mentioned experimental methods, commercially available ChemBioDraw Ultra 13.0 and ACD/Percepta ver. 2012 programs were used to calculate the lipophilicity values of all prepared compounds.
A HPLC separation module Waters Alliance 2695 XE equipped with a Waters Dual Absorbance Detector 2486 (Waters Corp., Milford, MA, USA) was used. A chromatographic column Symmetry® C18 5 μm, 4.6 × 250 mm, Part No. W21751W016 (Waters Corp., Milford, MA, USA) was used. The HPLC separation process was monitored by Empower® 3 Chromatography Manager Software (Waters Corp.). Isocratic elution by a mixture of MeOH p.a. (72%) and H2O-HPLC Mili-Q grade (28%) as a mobile phase was used for the determination of capacity factor k. Isocratic elution by a mixture of MeOH p.a. (72%) and acetate buffered saline (pH 7.4 and pH 6.5) (28%) as a mobile phase was used for the determination of distribution coefficient expressed as D7.4 and D6.5. The total flow of the column was 1.0 mL/min, injection 20 μL, column temperature 40 °C, and sample temperature 10 °C. The detection wavelength of 210 nm was chosen. A KI methanolic solution was used for the determination of the dead times (tD). Retention times (tR) were measured in minutes. The capacity factors k were calculated according to the formula k = (tR − tD)/tD, where tR is the retention time of the solute, and tD is the dead time obtained using an unretained analyte. The distribution coefficients DpH were calculated according to the formula DpH = (tR − tD)/tD. Each experiment was repeated three times.

[2] = system: S. aureus, MRSA, E. faecalis, VRE, M. smegmatis, M. marinum; experiment: In vitro antimicrobial screening, all tested strains; format: cell-based; details: antibacterial/antimycobacterial screening
[3] = system: Staphylococcus aureus ATCC 29213; experiment: In vitro antistaphylococcal activity, microtitration broth MIC; format: cell-based; details: Staphylococcus aureus
[4] = system: methicillin-resistant S. aureus (MRSA) 63718; experiment: as above; format: cell-based; details: Staphylococcus aureus
[5] = system: methicillin-resistant S. aureus SA 630; experiment: as above; format: cell-based; details: Staphylococcus aureus
[6] = system: methicillin-resistant S. aureus SA 3202; experiment: as above; format: cell-based; details: Staphylococcus aureus
[7] = system: vancomycin-resistant E. faecalis (VRE) 725B; experiment: In vitro antienterococcal activity, microtitration broth MIC; format: cell-based, Enterococcus faecalis; details: 24 h
[8] = system: Mycobacterium smegmatis ATCC 700084; experiment: In vitro antimycobacterial activity, broth dilution MIC; format: cell-based; details: Mycolicibacterium smegmatis
[9] = system: Mycobacterium marinum CAMP 5644; experiment: as above; format: cell-based; details: CAMP5644, 504 h
[10] = ATCC700084, 72 h, M. smegmatis ATCC 700084, three days, read-out: MIC MS
[11] = ATCC700084, M. smegmatis ATCC 700084, read-out: log(1/MIC [M]) MS (converted)
[12] = M. marinum CAMP 5644, 21 days, read-out: MIC MM
[13] = M. marinum CAMP 5644, read-out: log(1/MIC [M]) MM (converted)

| SMILES | log k [1] | log D6.5 [1] | log D7.4 [1] | further results |
| --- | --- | --- | --- | --- |
| O=C(/C=C/c1ccc(Cl)cc1)Nc1ccc(OC(F)(F)F)cc1Br [1r, (2E)-N-[2-Bromo-4-(trifluoromethoxy)phenyl]-3-(4-chlorophenyl)prop-2-enamide] | 1.0278 | 1.0236 | 1.0284 | antimicrobial activity (in words) [2]: total loss of any effect |
| O=C(/C=C/c1ccc(Cl)c(Cl)c1)Nc1ccc(F)cc1 [2d, (2E)-N-(4-Fluorophenyl)-3-(3,4-dichlorophenyl)prop-2-enamide] | 0.9009 | 0.9381 | 0.8660 | – |
| O=C(/C=C/c1ccc(Cl)c(Cl)c1)Nc1ccc(Cl)cc1 [2g, (2E)-N-(4-Chlorophenyl)-3-(3,4-dichlorophenyl)prop-2-enamide] | 0.6786 | 0.7224 | 0.7021 | – |
| O=C(/C=C/c1ccc(Cl)c(Cl)c1)Nc1ccccc1C(F)(F)F [2h, (2E)-3-(3,4-Dichlorophenyl)-N-[2-(trifluoromethyl)phenyl]prop-2-enamide] | 0.6836 | 0.7295 | 0.6526 | – |
| O=C(/C=C/c1ccc(Cl)c(Cl)c1)Nc1ccc(F)cc1F [2l, (2E)-3-(3,4-Dichlorophenyl)-N-(2,4-difluorophenyl)prop-2-enamide] | 0.6989 | 0.7094 | 0.6632 | – |
| O=C(/C=C/c1ccc(Cl)c(Cl)c1)Nc1cc(F)cc(F)c1 [2m, (2E)-3-(3,4-Dichlorophenyl)-N-(3,5-difluorophenyl)prop-2-enamide] | 0.9298 | 0.9345 | 0.8882 | – |
| O=C(/C=C/c1ccc(Cl)c(Cl)c1)Nc1ccc(OC(F)(F)F)cc1Br [2r, (2E)-N-[2-Bromo-4-(trifluoromethoxy)phenyl]-3-(3,4-dichlorophenyl)prop-2-enamide] | 1.2065 | 1.2373 | 1.2178 | antimicrobial activity (in words) [2]: total loss of any effect |
| CC1(C)S[C@@H]2[C@H](NC(=O)[C@H](N)c3ccccc3)C(=O)N2[C@H]1C(=O)O [AMP, ampicillin, reference compound] | – | – | – | MIC ([3]; ATCC29213, 24 h, S. aureus ATCC 29213, read-out: log(1/MIC [M]) SA (converted)): 5.75e-06 M (≈ 2.01 µg/mL); MIC ([3]; ATCC29213, S. aureus ATCC 29213, 24 h, read-out: MIC SA): 5.72e-06 M (≈ 2 µg/mL); MIC ([4]; 24 h, MRSA 63718, read-out: log(1/MIC [M]) MRSA1 (converted)): 4.57e-05 M (≈ 16 µg/mL); MIC ([4]; MRSA 63718, 24 h, read-out: MIC MRSA1): 4.58e-05 M (≈ 16 µg/mL); MIC ([5]; 24 h, MRSA SA 630, read-out: log(1/MIC [M]) MRSA2 (converted)): > 4.57e-05 M; MIC ([5]; MRSA SA 630, 24 h, read-out: MIC MRSA2): > 4.58e-05 M; MIC ([6]; 24 h, MRSA SA 3202, read-out: log(1/MIC [M]) MRSA3 (converted)): > 4.57e-05 M; MIC ([6]; MRSA SA 3202, 24 h, read-out: MIC MRSA3): > 4.58e-05 M; MIC ([7]; read-out: MIC VRE3): 5.72e-06 M (≈ 2 µg/mL); MIC ([7]; read-out: log(1/MIC [M]) VRE3 (converted)): 5.75e-06 M (≈ 2.01 µg/mL) |
| NNC(=O)c1ccncc1 [INH, isoniazid, reference compound] | – | – | – | MIC [8, 10]: 0.000117 M (≈ 16 µg/mL); MIC [8, 11]: 0.000117 M (≈ 16.1 µg/mL); MIC [9, 12]: 0.000467 M (≈ 64 µg/mL); MIC [9, 13]: 0.000468 M (≈ 64.1 µg/mL) |
| CO[C@H]1/C=C/O[C@@]2(C)Oc3c(C)c(O)c4c(O)c(c(/C=N/N5CCN(C)CC5)c(O)c4c3C2=O)NC(=O)/C(C)=C\C=C\[C@H](C)[C@H](O)[C@@H](C)[C@@H](O)[C@@H](C)[C@H](OC(C)=O)[C@@H]1C [RIF, rifampicin, reference compound] | – | – | – | MIC [8, 10]: 1.94e-05 M (≈ 16 µg/mL); MIC [8, 11]: 1.95e-05 M (≈ 16 µg/mL); MIC [9, 12]: 2.43e-06 M (≈ 2 µg/mL); MIC [9, 13]: 2.45e-06 M (≈ 2.02 µg/mL) |

More lines, main results first:

| log k [1] | log D6.5 [1] | log D7.4 [1] | SMILES | further results |
| --- | --- | --- | --- | --- |
| 0.6488 | 0.6925 | 0.6739 | O=C(/C=C/c1ccc(Cl)c(Cl)c1)Nc1ccccc1Cl [2e, (2E)-N-(2-Chlorophenyl)-3-(3,4-dichlorophenyl)prop-2-enamide] | – |
| 0.7404 | 0.7816 | 0.7616 | O=C(/C=C/c1ccc(Cl)c(Cl)c1)Nc1cccc(Cl)c1 [2f, (2E)-N-(3-Chlorophenyl)-3-(3,4-dichlorophenyl)prop-2-enamide] | – |
| 1.0932 | 1.0985 | 1.0565 | O=C(/C=C/c1ccc(Cl)c(Cl)c1)Nc1ccc(Cl)cc1Cl [2n, (2E)-N-(2,4-Dichlorophenyl)-3-(3,4-dichlorophenyl)prop-2-enamide] | – |
| 1.0840 | 1.0887 | 1.0474 | O=C(/C=C/c1ccc(Cl)c(Cl)c1)Nc1cc(Cl)ccc1Cl [2o, (2E)-N-(2,5-Dichlorophenyl)-3-(3,4-dichlorophenyl)prop-2-enamide] | – |
| 1.3043 | 1.3336 | 1.3080 | O=C(/C=C/c1ccc(Cl)c(Cl)c1)Nc1cc(Cl)cc(Cl)c1 [2p, (2E)-N-(3,5-Dichlorophenyl)-3-(3,4-dichlorophenyl)prop-2-enamide] | – |
